Data published in patent publication US20260108503A1, “POLYMERIC MICELLE NANOCARRIERS FOR TARGETED EPIDERMAL DELIVERY OF THE HEDGEHOG PATHWAY INHIBITOR TAK-441” (UNIVERSITÉ DE GENÈ DE GENÈVE, priority 2022, published 2026).
Entries after “also recorded” stand apart in the source; their conditions may differ.

Experiments:
[1] = Determination of TAK-441 content in the micelles (UHPLC-MS/MS); format: physicochemical; details: incorporation of TAK-441 in TPGS micelles
Method: TAK-441 loaded into the micelles was quantified by UHPLC-MS/MS. To ensure complete micelle destruction and release of the incorporated drug, formulations were diluted in acetonitrile and analyzed. The drug content, drug loading, and entrapment efficiency were calculated using equations 1-3: […]

[2] = Cutaneous delivery and biodistribution in vitro, Franz-type diffusion cells, porcine skin; format: in vitro ADME; details: 12 h application
Text: Porcine ears were purchased from a local abattoir (CARRE; Rolle, Switzerland) shortly after sacrifice. After washing under running cold water, skin samples with a thickness of approximately 0.8 mm were carefully harvested from the outer region of the ear using a Zimmer air dermatome (Münsingen, Switzerland). Hair was removed from the skin surface using clippers. Discs corresponding to the permeation area were punched out (Berg & Schmid HK 500; Urdorf, Switzerland). Skin samples were frozen at −20° C. and stored for a maximum period of 3 months. Before the experiment, skin samples were thawed at room temperature and placed for 15 min in 0.9% saline solution for rehydration. […]
(§1) TAK-441 had the least solubility in HPC; this characteristic would minimize the risk of interference of the suspending agent on drug delivery. […] After centrifugation at 10,000 rpm for 15 min, the permeation samples were analyzed by UHPLC-MS/MS. […]
Upon completion of the experiment, a punch was used to separate the skin sample into two parts—an inner disk with a surface area of 0.785 cm^2 and a remaining outer ring with an area of 1.215 cm^2. This outer ring was subsequently cut into small pieces, and TAK-441 deposited in the tissue was extracted by the validated extraction method (section 1.4.5.2) followed by quantification using UHPLC-MS/MS. […]

[3] = Cutaneous delivery and biodistribution in vitro, Franz-type diffusion cells, human skin; format: in vitro ADME
Method: Human skin samples were obtained shortly after surgery from the Department of Plastic, Aesthetic and Reconstructive Surgery, Geneva University Hospital (Geneva, Switzerland), fatty tissue was removed and the skin was stored at −20° C. The donation was approved by the Central Committee for Ethics in Research (CER: 08-150 (NAC08-051); Geneva University Hospital).
The experiments were performed using standard two-compartment vertical (Franz-type) diffusion cells, (Milian SA; Meyrin, Switzerland) with a cross-sectional area of 2 cm^2. The receptor compartment consisted of 10-mL Dulbecco's phosphate-buffered saline (DPBS) pH 7.4 containing 1% BSA to maintain sink conditions. The receiver compartment was maintained between 32° C.-34° C. For infinite dose conditions, 200 μL of TAK-441 micelle formulation (3 mg/mL) was applied to the skin sample surface (i.e., 300 μg of TAK-441/cm^2 of the skin surface) and for finite dose, 20 μL of micelle formulation (3 mg/mL) was applied (30 μg of TAK-441/cm^2 of the skin surface). […]
as §1
Upon completion of the experiment, a punch was used to separate the skin sample into two parts—an inner disk with a surface area of 0.785 cm^2 and a remaining outer ring with an area of 1.215 cm^2. This outer ring was subsequently cut into small pieces, and TAK-441 deposited in the tissue was extracted by the validated extraction method (section 1.4.5.2) followed by quantification using UHPLC-MS/MS.
The 0.785-cm^2 disks were used to determine the TAK-441 biodistribution as a function of depth in the skin. […] These lamellae enabled the amounts of TAK-441 to be determined as a function of position in the skin, encompassing the stratum corneum, epidermis, and upper dermis, respectively. Each lamella and the remaining dermis were individually extracted in 250-μL methanol for 4 h and TAK-441 was quantified by UHPLC-MS/MS.

HH pathway = details: NIH3T3 cells, Gli-reporter luciferase; read-out: IC50, inhibition of the hedgehog pathway; cited from earlier work
[4] = target: vismodegib-resistant SMO mutant D473H (Homo sapiens, UniProt Q99835, D473H); details: cited from earlier work
[5] = cited from earlier work
Gli1 expression = details: oral, all doses (50 mg/day to 1600 mg/day); cited from earlier work
[6] = cited from earlier work; remark: listed apart in the source
[7] = human, in vivo; cited from earlier work

Chain of vismodegib-resistant SMO mutant D473H (Q99835 28-787 D473H): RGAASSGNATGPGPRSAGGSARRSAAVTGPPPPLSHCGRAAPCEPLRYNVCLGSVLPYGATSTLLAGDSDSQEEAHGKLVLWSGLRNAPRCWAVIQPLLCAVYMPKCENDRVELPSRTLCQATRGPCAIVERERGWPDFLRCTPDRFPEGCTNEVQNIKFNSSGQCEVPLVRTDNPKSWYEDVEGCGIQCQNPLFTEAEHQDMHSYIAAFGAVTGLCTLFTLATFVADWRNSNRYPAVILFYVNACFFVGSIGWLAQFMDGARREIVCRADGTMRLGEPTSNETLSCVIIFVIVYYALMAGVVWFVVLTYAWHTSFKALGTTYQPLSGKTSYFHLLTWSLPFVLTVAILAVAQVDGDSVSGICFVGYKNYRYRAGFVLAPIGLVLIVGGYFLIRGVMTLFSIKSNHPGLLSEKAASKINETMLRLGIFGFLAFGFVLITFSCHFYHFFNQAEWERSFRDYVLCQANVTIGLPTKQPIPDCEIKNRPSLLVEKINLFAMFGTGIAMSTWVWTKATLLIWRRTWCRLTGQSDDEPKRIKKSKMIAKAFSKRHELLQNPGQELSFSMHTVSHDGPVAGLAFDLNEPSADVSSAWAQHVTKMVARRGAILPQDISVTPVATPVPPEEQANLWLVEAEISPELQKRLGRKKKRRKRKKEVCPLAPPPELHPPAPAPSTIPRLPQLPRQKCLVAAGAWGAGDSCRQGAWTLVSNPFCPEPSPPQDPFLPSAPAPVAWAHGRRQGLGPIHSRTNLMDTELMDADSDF

Row | SMILES | increase of aqueous solubility [1] | cumulative permeation (receiver compartment below LOD) [2] [pg/cm^2] | cumulative permeation ([3]; conclusion, corresponding to LOD) [pg/cm^2] | concentrations in the permeation samples (below LOD) ([3]; conclusion, permeation samples, UHPLC-MS/MS) [ng/mL] | transdermal permeation across human skin ([3]; human skin, 12 h application) | IC50 (HH pathway) [nM] | activity against vismodegib-resistant Smoothened receptor D473H mutant [4] | log P [5] | Gli1 expression in skin biopsies (Gli1 expression) | death assessed to be study drug-related ([6]; cerebral hemorrhage, patient with pancreatic cancer) | patients who experienced at least one adverse effect (AE) ([6]; oral, Phase I) | patients who experienced serious AE ([6]; oral, Phase I) | treatment outcome in patients with resistance to vismodegib [7]
1 | CCc1cc2c(c(OCC(F)(F)F)c(C(=O)NC3CCN(C(=O)CO)CC3)n2C)c(=O)n1CC(=O)c1ccccc1 [TAK-441] | approximately 40 fold | < 0.1 | < 0.1 | < 1.29 | below the LOD | 4.4 | active; also recorded: effective | 2.61 | strongly inhibited | One death | All patients | Approximately 35% | –
2 | Cc1c(C(=O)Nc2ccc(N3C[C@@H](C)O[C@@H](C)C3)nc2)cccc1-c1ccc(OC(F)(F)F)cc1 [sonidegib] | – | – | – | – | – | – | – | – | – | – | – | – | ineffective
